The subject of one series is U87 cells. Put plainly: CCK-8 cell proliferation assay, U87. It counts as cell-based. Conditions: Homo sapiens, U-87 MG, 72 h, CCK-8, 72 h; read-out: IC50, U87 proliferation inhibition. As to the method: The effects on cell proliferation were measured using a CCK-8 assay kit. A total of 3 × 10^3 cells were seeded per well in 96-well plates and incubated for 24, 48, or 72 h after drug administration. After 10 μL of CCK-8 solution was added to each well and incubated at 37 °C for 1–2 h, the absorbance at OD450 was read with an enzyme marker. The data were recorded and analyzed by GraphPad Prism software (version 8.0.2). For the cell growth assay, 2 × 10^3 cells were seeded per well in 96-well plates (n = 5). Ten microlitres of CCK-8 reagent was added at a fixed time every day, and the OD450 was read after 2 h. The statistical data were analyzed, and cell growth curves were plotted after a continuous period of 7 days.
(In general: Formazan colour is commonly taken as a measure of viable cells.)

For series [1] the following is noted: cited from earlier work.
The subject of a further series is NAD^+ in U87 cells. The series is described as follows: Measurement of NAD+ levels in U87 cells. It counts as cell-based, human. Conditions: 10 nmol/L, compared with PF403. An excerpt: NAD^+ is a coenzyme found in all cells and consists of both NAD^+ (oxidized) and NADH (reduced) forms. NAD^+ can be used to transfer electrons during redox reactions and as a substrate used by many enzymes to participate in intracellular reactions. We used an NAD^+/NADH assay kit (Beyotime, S0175, Shanghai, China) based on the WST-8 method to determine the NAD^+/NADH content. Cells in 6-well plates were collected and lysed with NAD^+/NADH extract on ice, and the supernatant was used as the sample to be tested. A control solution with a gradient concentration of NADH was prepared with a 10 mmol/L NADH standard. The supernatant from the sample was first aspirated and used to determine the total amount of NAD^+ and NADH. Subsequently, the sample was heated at 60 °C for 30 min to remove the NAD^+, after which the supernatant was collected to determine the NADH concentration. Ethanol dehydrogenase was added to each well, and the plate was incubated at 37 °C in the dark for 10 min. Then, 10 μL of chromogenic solution was added, and the plate was incubated for 30 min. Afterward, the absorbance at 450 nm was measured, and the content was calculated by comparison with the standard curve. The content of NAD^+ was calculated by subtracting the content of NADH from the total amount.

Another series has as its system U87 orthotopic glioma. Set-up: method as in PMID 27495899. Conditions: 6 mg/kg, 11 days of continuous treatment; cited from earlier work.
A further series deals with shNAMPT-2 U87 xenograft. Put plainly: shNAMPT-2 U87 (NAMPT-knockdown) xenograft model. It counts as in vivo, nude mice (BALB/c-nude). How it is done:
(§1) Six-week-old female athymic nude mice (BALB/c-nude) were obtained from GemPharmatech (Beijing, China). U87 cells (3 × 10^6 cells per animal) were injected into the rear right armpit of nude mice to generate xenograft tumors. Seven to ten days after injection, the tumors were visible to the naked eye (approximately 100 mm^3), and the mice were randomized into five groups (12 mice per group). The PF403 treatment groups were administered different doses of PF403 once daily via intragastric gavage (low dose, 3 mg/kg; median dose, 6 mg/kg; high dose, 12 mg/kg). The positive control drug used was temozolomide (50 mg/kg, i.g., Days 1–5), the first line of glioma treatment, while the control group was treated with 0.5% CMC-Na solution as a control. To validate the NAMPT knockdown group, we established the following groups: a control group (vehicle control, i.g., once daily, n = 12), a shNAMPT-2 knockdown group (vehicle control, i.g., once daily, n = 12), and a shNAMPT-2 knockdown group treated with CAT3 (6 mg/kg, i.g., once daily, n = 12). The body weights of the nude mice were recorded every two days, and the tumor weights were recorded on the 14th day after the mice were sacrificed.
(§2) IHC was performed following standard protocols. Briefly, the standard protocol for Ki67 immunohistochemical staining involved tissue preparation, deparaffinization and rehydration, antigen retrieval, blocking, primary and secondary antibody incubations, visualization with DAB, counterstaining, mounting, microscopic examination, and image acquisition. To assess proliferation rates in tissue samples, the area of Ki67 expression was used for comparison in each group.

A further series concerns U87 xenograft. The series is described as follows: U87 xenograft model in nude mice. The series is classed as in vivo, nude mice (BALB/c-nude). Conditions: for inhibitory effect in terms of tumor weight / inhibitory effect based on tumor volume: i.g.; for inhibitory effect in terms of tumor weight: 14th day; for inhibitory effect based on tumor volume: daily for 14 days. How it is done:
as §1, §2

In series [2] the test system is shNAMPT-2 U87 orthotopic glioma. Put plainly: Orthotopic glioma model with shNAMPT-2 U87 cells, MRI. It counts as in vivo, nude mice (BALB/c-nude). How it is done: For the orthotopic glioma model, six-week-old female athymic nude mice (BALB/c-nude) were obtained from GemPharmatech (Beijing, China). Anesthetize nude mice with tribromoethanol at a concentration of 20 mg/mL and a dosage of 0.2 mL/10 g body weight. U87 cells (shNAMPT-2, 5 × 10^5 cells) suspended in 5 μL PBS buffer were injected intracranially into nude mice using stereotaxic restraint. The location was bregma +1.0 mm, right lateral 2.0 mm, profundity 3.5 mm, and return to 3.0 mm. After 3 days, 6 mg/kg of CAT3 was orally administered once daily for 11 days. Intracranial tumors were viewed using MRI. The body weights of mice were monitored once every 2 or 3 days. The feeding and handling of animals have been approved by the Animal Care & Welfare Committee Institute of Materia Medica, CAMS & PUMC (Approval numbers: 00008485, 00008487, 00008963).
After 11 days of treatment, anatomical images of the intracranial tumor were acquired using an MRI scanner (PharmaScan 70/16 US, Bruker, Switzerland) on the nude mice. The parameters used in the scans to optimize gray/white matter contrast were as follows: a T2_TurboRARE, with TR/TE = 2795/35, 4 averages, 22 × 22 field-of-view, and 0.5 mm slice thickness. The scanning of all brains was completed in 25 sessions. The tumor volume was calculated using the sum of the areas in all images multiplied by the thickness of each slice (0.5 mm).

`COc1ccc2c3c(c4cc(OC)c(OC)cc4c2c1)CN1CCC[C@H]1C3` [CAT, (+)-Deoxytylophorinine]: the IC50 in the series with U87 cells amounted to 23.4 nM. Besides, the “blood–brain barrier penetration” value in series [1] was “effectively cross the blood–brain barrier”.
For `O=C(/C=C/c1cccnc1)NCCCCC1CCN(C(=O)c2ccccc2)CC1` [FK866, (E)-Daporinad], in the series with NAD^+ in U87 cells, the “inhibitory effect on intracellular NAD^+ content” value is “better inhibitory effect on intracellular NAD^+ content than PF403”.
As to “(13aS)-3-pivaloyloxyl-6,7-dimethoxyphenanthro[9,10-b] indolizidine [CAT3]”, the “inhibitory effect, orthotopic glioma model” value with U87 orthotopic glioma is roughly 40%. In addition, the “inhibitory effect on cell proliferation by tumor volume or weight” value with shNAMPT-2 U87 xenograft (6 mg/kg, i.g., daily for 14 days) is listed as “no significant inhibitory effect”. Moreover, the “expression of Ki67 in tumor (IHC)” value in the series on shNAMPT-2 U87 xenograft (effective dose (6 mg/kg), NAMPT-knockdown xenograft) is “not affected”; with U87 xenograft (after treatment, U87 xenograft), “reduced”. Besides, the body weight entry in the series on shNAMPT-2 U87 xenograft (over 14 days, gastrointestinal side effects) is given as “slight decrease in body weight”. The “inhibitory effect in terms of tumor weight” value in the series on U87 xenograft (6 mg/kg) stood at 55.37%; in the series with U87 xenograft (12 mg/kg), 63.18%. Also, the “inhibitory effect based on tumor volume” value with U87 xenograft (6 mg/kg) is on record as roughly 58.41%; in the series with U87 xenograft (12 mg/kg), roughly 67.59%. Moreover, in the series on U87 xenograft (due to gastrointestinal reaction), the “body weight of the nude mice” value was “decreased slightly in the first week and then gradually recovered”. For the same compound, the “body weight of nude mice” value in series [2] (early and middle stages of treatment) is “slight decrease in the body weight”. Also, the “NAMPT knockdown tumor volume (MRI)” value in series [2] (treatment group, 6 mg/kg orally once daily for 11 days, n = 12) is given as 24.05 ± 13.99 mm^3.
